Assay results as given in ChEMBL document CHEMBL1149015, “New taxanes from Taxus brevifolia, 2” (1986).
In brackets after ≈: the same amount, converted by molar mass.

Tested on: KB
Assay: Cytotoxicity against human KB cells
Type: functional

| Structure (SMILES) | ED50 | EC50 (Homo sapiens, KB, read-out: ED50 (the source's name)) |
| --- | --- | --- |
| CC(=O)O[C@H]1C(=O)[C@]2(C)[C@H](O)C[C@H]3OC[C@@]3(OC(C)=O)[C@H]2[C@H](OC(=O)c2ccccc2)[C@]2(O)C[C@H](OC(=O)[C@H](O)[C@@H](NC(=O)c3ccccc3)c3ccccc3)C(C)=C1C2(C)C | 3 ×10⁻⁵ ug/ml |  |
| CC(=O)O[C@@]12CO[C@@H]1C[C@H](O)[C@@]1(C)C(=O)C(=O)C3=C(C)[C@@H](OC(=O)[C@H](O)[C@@H](NC(=O)c4ccccc4)c4ccccc4)C[C@@](O)([C@@H](OC(=O)c4ccccc4)[C@H]21)C3(C)C |  | 0.02 µg/mL (≈ 0.0247 µM) |
| CC(=O)O[C@H]1C(=O)[C@@]2(C)[C@H]([C@H](OC(=O)c3ccccc3)[C@]3(O)C[C@H](OC(=O)[C@H](O)[C@@H](NC(=O)c4ccccc4)c4ccccc4)C(C)=C1C3(C)C)[C@]1(OC(C)=O)CO[C@@H]1C[C@@H]2O [PACLITAXEL] | 1 ×10⁻⁵ ug/ml |  |
